Reference: PubChem BioAssay (NCI)
Values joined by “and” are separate entries in the source; they are usually repeats but may differ in a detail not shown here. Identical values can stand only once.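 These data come from cells grown in 96-well plates and exposed to compound for 48 hours at five concentrations. Here, GI50 denotes the concentration required for 50% inhibition of growth. Definition used: TGI = concentration required for complete inhibition of growth.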

Key:
Assay in all cases: DTP human tumour cell line panel, 48 h
HOP-62 NSCLC = test system: HOP-62 NSCLC
SF-539 CNS = test system: SF-539 CNS
SW-620 colon = test system: SW-620 colon
MCF7 breast = test system: MCF7 breast
M14 melanoma = test system: M14 melanoma
U251 CNS = test system: U251 CNS
786-0 renal = test system: 786-0 renal
SNB-19 CNS = test system: SNB-19 CNS
CAKI-1 renal = test system: CAKI-1 renal
OVCAR-4 ovarian = test system: OVCAR-4 ovarian

Row | SMILES | TGI (HOP-62 NSCLC) [µM] | GI50 (SF-539 CNS) [µM] | TGI (SF-539 CNS) | GI50 (SW-620 colon) [µM] | GI50 (MCF7 breast) [µM] | GI50 (M14 melanoma) [µM] | TGI (M14 melanoma) | TGI (U251 CNS) [µM] | TGI (786-0 renal) [µM] | GI50 (SNB-19 CNS) [µM] | GI50 (CAKI-1 renal) [µM] | GI50 (OVCAR-4 ovarian) [µM] | TGI (SW-620 colon) [µM] | TGI (MCF7 breast) [µM] | TGI (SNB-19 CNS) [µM] | TGI (CAKI-1 renal) [µM] | TGI (OVCAR-4 ovarian) [µM]
1 | COc1cc2cc(C(=O)N3CC(CCl)c4c3cc(NC(=O)C(C)(C)c3ccccc3[N+](=O)[O-])c3ccccc43)[nH]c2c(OC)c1OC (configuration not stated) | 0.862 | 6.55 | 14.5 µM and 74.9 µM | 16.9 | 16.1 | 6.24 | 9.11 µM and 33.2 µM | > 600 | > 600 | 303 | 78.5 | 62.1 |  |  |  |  | 
2 | COc1ccc(Br)c2c1CC(C(=O)O)CC2 (configuration not stated) | > 100 |  | > 100 µM |  |  |  | > 100 µM | > 100 | > 100 |  |  |  | > 100 | > 100 | > 100 | > 100 | > 100
3 | Clc1cccc(Cl)c1C=NC12CC3CC(CC(C3)C1)C2 | > 10 |  | > 10 µM |  |  |  | > 10 µM | > 10 | > 10 |  |  |  | > 10 | > 10 | > 10 | > 10 | > 10
4 | COc1ccc(C2c3cc4c(cc3C(O)C3CCC(=O)N23)OCO4)cc1 (configuration not stated) | > 100 |  | > 100 µM |  |  |  | > 100 µM | > 100 | > 100 |  |  |  | > 100 | > 100 | > 100 | > 100 | > 100
5 | CCCCc1ccc(Nc2nc(Cl)c3c(ncn3COCCOC(C)=O)n2)cc1 | 31.5 |  | 53.4 µM |  |  |  | 34 µM | 43.1 | 36.9 |  |  |  | 41.4 | 49.1 | 46.1 | 60.1 | 66.6
6 | Cc1nc2sc(CCl)nn2c(=O)c1Cl | 32.1 |  | 31.3 µM |  |  |  | 26.9 µM | 19.2 | 22.4 |  |  |  | 25.6 | 18.1 | 32.3 | 24.8 | 29.7
7 | CC(C)c1ccccc1SC1CC(=O)CC(Sc2ccccc2C(C)C)C12O[C@H](c1ccccc1)[C@@H](c1ccccc1)O2 (some centres not stated) | > 100 |  | > 100 µM |  |  |  | 40.8 µM | 40.1 | 33.3 |  |  |  | > 100 | > 100 | > 100 | 62.5 | > 100
8 | CSc1nc2ccccc2c(=O)n1/N=C1\C(=O)N(CN2CCCCC2)c2ccc(Cl)cc21 | > 100 |  | > 100 µM |  |  |  | > 100 µM | > 100 | 69 |  |  |  | 52.1 | > 100 | > 100 | > 100 | > 100
9 | O=c1c2cc(S(=O)(=O)Nc3ccccc3Cl)ccc2ncn1NS(=O)(=O)c1ccc(Br)cc1 | > 37.5 |  | > 37.5 µM |  |  |  | > 37.5 µM | > 37.5 | > 37.5 |  |  |  | > 37.5 | > 37.5 | > 37.5 | > 37.5 | > 37.5
10 | Oc1ccccc1/C=N/Nc1nnc2c3ccccc3c3ccccc3c2n1 | > 100 |  | > 100 µM |  |  |  | > 100 µM | > 100 | > 100 |  |  |  | > 100 | > 100 | > 100 | > 100 | > 100
11 | C[C@@]12C=CC3C/C(=N\C(N)=S)C=C(CCCC4OCCO4)[C@]3(CC1)C2 (some centres not stated) | 92.3 |  | 31.7 µM |  |  |  | 30.9 µM | 48.4 | 57.1 |  |  |  | 48.9 | 26.4 | > 100 | 69.9 | 99.2
12 | COc1ccccc1C1CC(=O)CC(c2ccccc2OC)C12C(=O)NC(=S)NC2=O (configuration not stated) | > 100 |  | > 100 µM |  |  |  | > 100 µM | > 100 | > 100 |  |  |  | > 100 | > 100 | > 100 | > 100 | > 100
13 | CCCCCC(=O)Nc1n[nH]nc1C(N)=O | > 100 |  | > 100 µM |  |  |  | > 100 µM | > 100 | > 100 |  |  |  | > 100 | > 100 | > 100 | > 100 | > 100
14 | COC(=O)[C@H](Cc1ccccc1)NC(=O)NCCN(CCNC(=O)N[C@@H](Cc1ccccc1)C(=O)OC)C(=O)N[C@@H](Cc1ccccc1)C(=O)OC | 39.8 |  | 47.1 µM |  |  |  | 45.7 µM | 41.2 | 34.1 |  |  |  | 43.8 | 61.8 | 48.2 | > 63.6 | 30
15 | COc1ccc(OC)c2sc(N3C(=O)/C(=C/Cc4ccco4)N=C3c3ccccc3)nc12 | > 100 |  | > 100 µM |  |  |  | > 100 µM | 54.1 | > 100 |  |  |  | > 100 | 35.7 | > 100 | > 100 | > 100
16 | CC1C2CC(CC(=O)N2)C1(C)C (configuration not stated) | > 100 |  | > 100 µM |  |  |  | > 100 µM | > 100 | > 100 |  |  |  | > 100 | > 100 | > 100 | > 100 | > 100
17 | CC1(C)C(=O)N(O)C(C)(C)N1O | > 10 |  | > 10 µM |  |  |  | > 10 µM | > 10 | > 10 |  |  |  | > 10 | > 10 | > 10 | > 10 | > 10
